Read-outs that look alike come from different tables or passages of the source.
System: HIV-IIIb
Assay: Antiviral assay in MT4 cells
Type: cell-based
Settings: Human immunodeficiency virus 1, IIIB, MT4, 120 h
Protocol: For the antiviral assay utilizing MT4 cells, 0.4 μL of 189X test concentration of 3-fold serially diluted compound in DMSO was added to 40 μL of cell growth medium (RPMI 1640, 10% FBS, 1% penicilline/Streptomycine, 1% L-Glutamine, 1% HEPES) in each well of 384-well assay plates (10 concentrations) in quidruplicate.
1 mL aliquots of 2×10^6 MT4 cells are pre-infected for 1 and 3 hours respectively at 37° C. with 25 μL (MT4) or of either cell growth medium (mock-infected) or a fresh 1:250 dilution of an HIV-IIIb concentrated ABI stock (0.004 m.o.i. for MT4 cells). Infected and uninfected cells are diluted in cell growth medium and 35 μL of 2000 (for MT4) cells is added to each well of the assay plates.
Assay plates were then incubated in a 37° C. incubator. After 5 days of incubation, 25 μL of 2× concentrated CellTiter-Glo™ Reagent (catalog # G7573, Promega Biosciences, Inc., Madison, Wis.) was added to each well of the assay plate. Cell lysis was carried out by incubating at room temperature for 2-3 minutes, and then chemiluminescence was read using the Envision reader (PerkinElmer).

[1] = MT4 cells infected with HIV-IIIb, 5 days, CellTiter-Glo, read-out: EC50 nM in MT-4

| Compound | EC50 [1] [nM] | EC50 (read-out: EC50 nM in MT-4, MT4 cells infected with HIV-IIIb, 5 days, CellTiter-Glo) [nM] |
| --- | --- | --- |
| O=C(NCc1cc(F)ccc1F)c1cn2c(c(O)c1=O)C(=O)N1[C@H]3CC[C@H](C3)O[C@@H]1C2 [Compound 89, (2R,5S,13aR)—N-(2,5-difluorobenzyl)-8-hydroxy-7,9-dioxo-2,3,4,5,7,9,13,13a-octahydro-2,5-methanopyrido[1′,2′:4,5]pyrazino[2,1-b][1,3]oxazepine-10-carboxamide] | 8.4 | – |
| O=C(NC1(c2ccc(F)cc2F)CCCCC1)c1cn2c(c(O)c1=O)C(=O)N1C(C2)O[C@H]2CC[C@@H]1C2 (stereo partly drawn) [Compound 34, (2S,5R)—N-(1-(2,4-difluorophenyl)cyclohexyl)-8-hydroxy-7,9-dioxo-2,3,4,5,7,9,13,13a-octahydro-2,5-methanopyrido[1′,2′: 4,5]pyrazino[2,1-b][1,3]oxazepine-10-carboxamide] | – | 422 |
| O=C(NCc1cc(Cl)c(F)cc1F)c1cn2c(c(O)c1=O)C(=O)N1[C@H]3CC[C@H](C3)O[C@@H]1C2 [Compound 65, (2R,5 S,13aR)—N-(5-chloro-2,4-difluorobenzyl)-8-hydroxy-7,9-dioxo-2,3,4,5,7,9,13,13a-octahydro-2,5-methanopyrido[1′,2′: 4,5]pyrazino[2,1-b][1,3]oxazepine-10-carboxamide] | 2.4 | – |
| Cc1cccc(CNC(=O)c2cn3c(c(O)c2=O)C(=O)N2[C@H]4CC[C@H](C4)[C@@H]2C3)c1F [Compound 70, (1R,4S,12aR)—N-(2-fluoro-3-methylbenzyl)-7-hydroxy-6,8-dioxo-1,2,3,4,6,8,12,12a-octahydro-1,4-methanodipyrido[1,2-a:1′,2′-d]pyrazine-9-carboxamide] | 5.1 | – |
| O=C(NCc1ccc(F)cc1F)c1cn2c(c(O)c1=O)C(=O)N1[C@@H]3CC[C@@H](C3)O[C@H]1C2 [Compound 3, (2S,5R,13aS)—N-(2,4-difluorobenzyl)-8-hydroxy-7,9-dioxo-2,3,4,5,7,9,13,13a-octahydro-2,5-methanopyrido[1′,2′:4,5]pyrazino[2,1-b][1,3]oxazepine-10-carboxamide] | 2 | – |
| O=C(NCc1ccc(Cl)cc1F)c1cn2c(c(O)c1=O)C(=O)N1[C@@H]3CC[C@@H](C3)O[C@H]1C2 [Compound 17, (2 S,5R,13aS)—N-(4-chloro-2-fluorobenzyl)-8-hydroxy-7,9-dioxo-2,3,4,5,7,9,13,13a-octahydro-2,5-methanopyrido[1′,2′:4,5]pyrazino[2,1-b][1,3]oxazepine-10-carboxamide] | 5.9 | – |
| O=C(NCc1ccc(F)cc1F)c1cn2c(c(O)c1=O)C(=O)N1[C@H]3CC[C@H](C3)O[C@@H]1C2 [Compound 2, (2R,5S,13aR)—N-(2,4-difluorobenzyl)-8-hydroxy-7,9-dioxo-2,3,4,5,7,9,13,13a-octahydro-2,5-methanopyrido[1′,2′:4,5]pyrazino[2,1-b][1,3]oxazepine-10-carboxamide] | 2.2 | – |
| O=C(NCc1c(F)cc(F)cc1F)c1cn2c(c(O)c1=O)C(=O)N1[C@H]3CC[C@H](C3)[C@H]1C2 [Compound 55, (1R,4S,12aS)-7-hydroxy-6,8-dioxo-N-(2,4,6-trifluorobenzyl)-1,2,3,4,6,8,12,12a-octahydro-1,4-methanodipyrido[1,2-a:1′,2′-d]pyrazine-9-carboxamide] | 1.5 | – |
| O=C(NCc1ncccc1C(F)(F)F)c1cn2c(c(O)c1=O)C(=O)N1[C@@H]3CC[C@@H](C3)O[C@H]1C2 [Compound 49, (2 S,5R,13aS)-8-hydroxy-7,9-dioxo-N-((3-(trifluoromethyl)pyridin-2-yl)methyl)-2,3,4,5,7,9,13,13a-octahydro-2,5-methanopyrido[1%2′: 4,5]pyrazino[2,1-b][1,3]oxazepine-10-carboxamide] | 33.3 | – |
| O=C(NCc1c(F)cc(F)cc1F)c1cn2c(c(O)c1=O)C(=O)N1[C@H]3C[C@H](C3)[C@H]1C2 (single isomer, unassigned) [Compound 96] | 2.6 | – |

Source: patent US10689399B2, “Substituted 3,4,5,6,8,10,14,14a-octahydro-2h-2,6-methanopyrido[1′,2′:4,5]pyrazino[2,1-b][1,3]oxazocines and methods for treating viral infections” (Gilead Sciences, Inc., priority 2012, dated 2020)
